In patent US6472227B1, “Barbiturate assay, tracers, immunogens, antibodies and kit” (Abbott Laboratories, priority 1986, dated 2002):

Assays:
[1] = Tracer stability: polarization after storage in buffer or boric acid (Table 1); assay type: physicochemical; set-up: Polarization (Buffer): unit not given beside the values
Text: It was unexpectedly discovered that the presence of a carbon-carbon double bond between the fluorescein moiety and the barbiturate ring portions of the novel tracers of the present invention advantageously orients the tracer for optimal interaction with the antibody.

[2] = test system: antibodies raised against an immunogen having the structure shown in FIG. 29; test: Fluorescence polarization immunoassay cross-reactivity in drug-free normal human urine, tracer of FIG. 30; assay type: binding, sheep; details: for % CR / Conc. Found: tracer FIG. 30
Protocol: (§1) The antibodies of the present invention are prepared by eliciting a response in sheep to the immunogens described supra. The immunogen is administered to animals or to in vitro cultures of immunocompetent cells by a series of innoculations, in a manner well known to those skilled in the art.
(§2) The tracer formulation presently preferred is 150 nanomolar tracer in: 0.1 molar phosphate buffer at pH 6.2; 5% sodium 5-sulfosalicylate; 0.1% sodium azide; and 0.01% bovine gamma-globulin. The antiserum formulation comprises sheep serum diluted with: 0.1 molar tris buffer at pH 7.5; 0.1% sodium azide; 0.1% bovine gamma-globulin; and 2% ethylene glycol (volume/volume). The dilution buffer comprises: 0.1 molar sodium phosphate at pH 7.5; 0.1% sodium azide; and 0.01% bovine gamma-globulin. The pretreatment solution comprises: 0.01% bovine gamma-globulin; 0.1 molar tris buffer at pH 7.5; 0.1% sodium azide; and 10 mg/mL riboflavin binding protein.
(§3) A minimum of fifty microliters of urine is required. The calibrators, controls, or unknown samples are pipetted directly into the sample well of the TDx® or ADx® sample cartridge. […] The assay procedure from this point is fully automated.
(§4) If a manual assay is being performed, then the sample is mixed with the pretreatment solution in dilution buffer and a background reading is taken. The tracer and antibody are then mixed into the test solution. After incubation, a fluorescence polarization reading is taken.
(§5) The net fluorescence polarization value of each calibrator, control or sample is determined and is printed on the output tape of an instrument such as the Abbott TDx® Analyzer. […] The concentration of each control or sample is read off the stored calibration curve and printed on the output tape.
Cross-reactivity was tested by the method of the present invention for the commonly-used barbiturates. In each case, compounds were assayed on the Abbott Laboratories+ TDx® Clinical Analyzer or the ADx® Drugs of Abuse System after adding a known quantity (200 ng/mL) of the barbiturate test compound to drug-free normal human urine.
(§6) The five columns in Tables 4(a) and 4(b) indicate the same information as is described above for Table 3(a).

[3] = test system: antibodies raised against an immunogen having the structure shown in FIG. 28; test: Fluorescence polarization immunoassay cross-reactivity in drug-free normal human urine, tracer of FIG. 5; assay type: binding, sheep
Protocol: as §1, §2, §3, §4, §5
Cross-reactivity was tested by the method of the present invention for the commonly-used barbiturates. […]
The five columns indicate the following information:
In other words, when 200 ng of secobarbital were added to drug-free normal human urine, approximately 200 ng of secobarbital were detected in the resulting urine sample. Thus, the closer the factor is to 1.0, the more accurate the assay is with respect to the particular test compound analyzed.
The percent cross-reactivity value presented in column five was obtained by the following mathematical formula: [formula]
as §6

[4] = test system: antibodies raised against an immunogen having the structure shown in FIG. 29; test: Fluorescence polarization immunoassay cross-reactivity, tracer of FIG. 31; assay type: binding, sheep; details: tracer FIG. 31
Protocol: as §1

Compound: CCCC(C)C1(CC(=O)NCc2c(O)ccc3c2Oc2cc(O)ccc2C32OC(=O)c3ccccc32)C(=O)NC(=O)NC1=O (stereo not drawn)
- Polarization (Boric Acid) ([1]; 2-8 °C, Day 0): 269.39
- Polarization (Buffer) ([1]; 2-8 °C, Day 0): 247.79
- Polarization (Boric Acid) ([1]; 2-8 °C, Day 1): 271.12
- Polarization (Buffer) ([1]; 2-8 °C, Day 1): 238.09
- Polarization (Boric Acid) ([1]; 2-8 °C, Day 7): 228.62
- Polarization (Buffer) ([1]; 2-8 °C, Day 7): 168.21
- Polarization (Boric Acid) ([1]; 45 °C, Day 1): 62.68
- Polarization (Buffer) ([1]; 45 °C, Day 1): 48.70
- Polarization (Boric Acid) ([1]; 45 °C, Day 7): > 68.68
- Polarization (Buffer) ([1]; 45 °C, Day 7): > 48.70

Compound: CCCC(C)C1(C/C=C/C(=O)NCc2c(O)ccc3c2Oc2cc(O)ccc2C32OC(=O)c3ccccc32)C(=O)NC(=O)NC1=O (stereo not drawn) [drawing 9]
- Polarization (Buffer) ([1]; 2-8 °C, Day 0): 239.63
- Polarization (Buffer) ([1]; 2-8 °C, Day 1): 235.18
- Polarization (Buffer) ([1]; 2-8 °C, Day 7): 235.08
- Polarization (Buffer) ([1]; 45 °C, Day 1): 237.93
- Polarization (Buffer) ([1]; 45 °C, Day 7): 239.72

Compound: O=C1NC(=O)C(c2ccccc2)(c2ccc(O)cc2)N1 (stereo not drawn) [p-Hydroxy phenytoin]
- amount of the test compound found ([2]; 10 μg/mL added): ND (None detected: Concentration less than the sensitivity of the assay (60 ng/mL))
- amount of the test compound found ([2]; 100 μg/mL added): 101 ng/mL
- factor ([2]; 100 μg/mL added): 0.00010
- percent cross reactivity ([2]; 100 μg/mL added): 0.10%
- amount of the test compound found ([2]; 500 μg/mL added): 218 ng/mL
- factor ([2]; 500 μg/mL added): 0.00004
- percent cross reactivity ([2]; 500 μg/mL added): 0.04%
- % CR ([2]; Conc. Added 500 (ng/mL)): 0.001%
- Conc. Found ([2]; Conc. Added 500 (ng/mL)): 200 ng/mL
- amount of the test compound found ([3]; 1 μg/mL added): ND (None detected: Concentration less than the sensitivity of the assay (60 ng/mL))
- amount of the test compound found ([3]; 10 μg/mL added): 340 ng/mL
- factor ([3]; 10 μg/mL added): 0.034
- percent cross reactivity ([3]; 10 μg/mL added): 3.40%
- amount of the test compound found ([3]; 100 μg/mL added): 1200 ng/mL
- factor ([3]; 100 μg/mL added): 0.012
- percent cross reactivity ([3]; 100 μg/mL added): 1.20%
- % CR ([4]; Conc. Added 500 (ng/mL)): 0.058%
- Conc. Found ([4]; Conc. Added 500 (ng/mL)): 290 ng/mL

Compound: Primidone
- amount of the test compound found ([2]; 10 μg/mL added): ND (None detected: Concentration less than the sensitivity of the assay (60 ng/mL))
- amount of the test compound found ([2]; 100 μg/mL added): 195 ng/mL
- factor ([2]; 100 μg/mL added): 0.00019
- percent cross reactivity ([2]; 100 μg/mL added): 0.19%
- % CR ([2]; Conc. Added 100 (ng/mL)): 0.18%
- Conc. Found ([2]; Conc. Added 100 (ng/mL)): 180 ng/mL
- amount of the test compound found ([3]; 1 μg/mL added): ND (None detected: Concentration less than the sensitivity of the assay (60 ng/mL))
- amount of the test compound found ([3]; 10 μg/mL added): 90 ng/mL
- factor ([3]; 10 μg/mL added): 0.009
- percent cross reactivity ([3]; 10 μg/mL added): 0.90%
- amount of the test compound found ([3]; 100 μg/mL added): 320 ng/mL
- factor ([3]; 100 μg/mL added): 0.0032
- percent cross reactivity ([3]; 100 μg/mL added): 0.32%
- % CR ([4]; Conc. Added 100 (ng/mL)): 0.24%
- Conc. Found ([4]; Conc. Added 100 (ng/mL)): 240 ng/mL
